This is an account of results in US20030216444A1, “Benzoylpyridine derivative or its salt, fungicide containing it as an active ingredient, its production process and intermediate for producing it” (priority 2000, published 2003).

The term melting point denotes the temperature, or range, at which the solid turns liquid. On to `COc1cc(C)c(C(=O)c2c(C(F)(F)F)cc(Cl)nc2Cl)c(OC)c1OC` [compound No. 3, 3-(2,3,4-trimethoxy-6-methylbenzoyl)-2,6-dichloro-4-trifluoromethylpyridine], for which the melting point fell in the range of 81 to 83 °C.

`COc1cc(C)c(C(=O)c2cnccc2C(F)(F)F)c(OC)c1OC` [compound No. 7, 3-(2,3,4-trimethoxy-6-methylbenzoyl)-4-trifluoromethylpyridine] yielded a melting point of 59 to 62 °C.

For the molecule `COc1cc(C)c(C(=O)c2c(C(F)(F)F)ccnc2Cl)c(OC)c1OC` [compound No. 11, 3-(2,3,4-trimethoxy-6-methylbenzoyl)-2-chloro-4-trifluoromethylpyridine], the melting point lay within 110 to 112 °C. Take `COc1cc(C)c(C(=O)c2c(C(F)(F)F)ccnc2Cl)cc1OCc1ccccc1` [compound No. 27, 3-(5-benzyloxy-4-methoxy-2-methylbenzoyl)-2-chloro-4-trifluoromethylpyridine]: the melting point fell in the range of 116 to 117 °C. Take `COc1cc(C)c(C(=O)c2c(C(F)(F)F)ccnc2OC)cc1OC` [compound No. 32, 3-(4,5-dimethoxy-2-methylbenzoyl)-2-methoxy-4-trifluoromethylpyridine]: the melting point lay within 125 to 127 °C. `COc1cc(C)c(C(=O)c2c(Cl)nc(Cl)c(C(C)=O)c2C(F)(F)F)c(OC)c1OC` [compound No. 62, 5-(2,3,4-trimethoxy-6-methylbenzoyl)-3-acetyl-2,6-dichloro-4-trifluoromethylpyridine] returned a melting point of 109 to 112 °C. With `COc1cc(C)c(C(=O)c2c(Cl)cnc(Cl)c2C(F)(F)F)c(OC)c1OC` [compound No. 90, 4-(2,3,4-trimethoxy-6-methylbenzoyl)-2,5-dichloro-3-trifluoromethylpyridine] the figure was 106 to 109 °C. With `COc1cc(C)c(C(=O)c2c(Cl)cncc2C(F)(F)F)c(OC)c1OC` [compound No. 102, 4-(2,3,4-trimethoxy-6-methylbenzoyl)-3-chloro-5-trifluoromethylpyridine] the figure was 75 to 77 °C; with `COc1cc(C)c(C(=O)c2c(OC)cncc2C(F)(F)F)c(OC)c1OC` [compound No. 122, 4-(2,3,4-trimethoxy-6-methylbenzoyl)-3-methoxy-5-trifluoromethylpyridine], 103 to 106 °C; with `COc1cc(C)c(C(=O)c2c(OC)cnc(Cl)c2C(F)(F)F)c(OC)c1OC` [compound No. 123, 4-(2,3,4-trimethoxy-6-methylbenzoyl)-2-chloro-3-trifluoromethyl-5-methoxypyridine], 117 to 119 °C. As for `COc1cc(C)c(C(=O)c2c(OC)cnc(Br)c2C(F)(F)F)c(OC)c1OC` [compound No. 124, 4-(2,3,4-trimethoxy-6-methylbenzoyl)-2-bromo-3-trifluoromethyl-5-methoxypyridine], the melting point was 145 to 147 °C.

For the molecule `COc1cc(C)c(C(=O)c2c(Cl)cnc(Cl)c2Cl)c(OC)c1OC` [compound No. 186, 4-(2,3,4-trimethoxy-6-methylbenzoyl)-2,3,5-trichloropyridine], the melting point lay in the range of 60 to 61 °C. `COc1cc(C)c(C(=O)c2c(Cl)cncc2Cl)c(OC)c1OC` [compound No. 191, 4-(2,3,4-trimethoxy-6-methylbenzoyl)-3,5-dichloropyridine] showed a melting point of 109 to 111 °C. `COc1cc(C)c(C(=O)c2c(OC)cnc(Cl)c2Cl)c(OC)c1OC` [compound No. 193, 4-(2,3,4-trimethoxy-6-methylbenzoyl)-2,3-dichloro-5-methoxypyridine] displayed a melting point of 98 to 99 °C. Take `COc1cc(C)c(C(=O)c2c(C)cncc2Br)c(OC)c1OC` [compound No. 228, 4-(2,3,4-trimethoxy-6-methylbenzoyl)-3-bromo-5-methylpyridine]: the melting point lay in the range of 88 to 93 °C. On to `COc1cc(C)c(C(=O)c2c(OC)cnc(Br)c2Cl)c(OC)c1OC` [compound No. 245, 4-(2,3,4-trimethoxy-6-methylbenzoyl)-2bromo-3-chloro-5-methoxypyridine], for which the melting point was in the range of 97 to 99 °C.
